# Like-named read-outs stand apart in the source and are kept apart here.
# Key:
# Assay in all cases: Glasshouse assay for herbicidal activity (pre- and post-emergence), percentage phytotoxicity
# Format in all cases: in vivo
# Lolium perenne (LOLPE) = conditions: Lolium perenne
# How it was run: (§1)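 Visual phytotoxicity score, 0% = undamaged to 100% = total kill, read 20 days after treatment for PRE and 15 days for POST. Pots of standard soil; treatment at day 1 (PRE) or roughly day 12 (POST). Glasshouse: 16 h photoperiod, 65% RH, 24/18 or 20/16 °C by climate type.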
# Avena fatua (AVEFA) = conditions: Avena fatua
# How it was run: as §1
# [1] = system: Echinochloa crus-galli (ECHCG); conditions: Echinochloa crus-galli
# How it was run: as §1
# [2] = system: Alopecurus myosuroides (ALOMY); conditions: Alopecurus myosuroides
# How it was run: as §1
# [3] = post-emergence, 360 h, Rate 250 g/ha, post-emergence, visual assessment 15 DAA, 100%=total damage, 0%=no damage, read-out: Post-emergence herbicidal activity (percentage phytotoxicity) LOLPE POST
# [4] = pre-emergence, 480 h, Rate 250 g/ha, pre-emergence, visual assessment 20 DAA, 100%=total damage, 0%=no damage, read-out: Pre-emergence herbicidal activity (percentage phytotoxicity) LOLPE PRE
# [5] = post-emergence, 360 h, Rate 250 g/ha, post-emergence, visual assessment 15 DAA, 100%=total damage, 0%=no damage, read-out: Post-emergence herbicidal activity (percentage phytotoxicity) AVEFA POST
# [6] = pre-emergence, 480 h, Rate 250 g/ha, pre-emergence, visual assessment 20 DAA, 100%=total damage, 0%=no damage, read-out: Pre-emergence herbicidal activity (percentage phytotoxicity) AVEFA PRE
# [7] = post-emergence, 360 h, Rate 250 g/ha, post-emergence, visual assessment 15 DAA, 100%=total damage, 0%=no damage, read-out: Post-emergence herbicidal activity (percentage phytotoxicity) ECHCG POST
# [8] = pre-emergence, 480 h, Rate 250 g/ha, pre-emergence, visual assessment 20 DAA, 100%=total damage, 0%=no damage, read-out: Pre-emergence herbicidal activity (percentage phytotoxicity) ECHCG PRE
# [9] = post-emergence, 360 h, Rate 250 g/ha, post-emergence, visual assessment 15 DAA, 100%=total damage, 0%=no damage, read-out: Post-emergence herbicidal activity (percentage phytotoxicity) ALOMY POST
# [10] = pre-emergence, 480 h, Rate 250 g/ha, pre-emergence, visual assessment 20 DAA, 100%=total damage, 0%=no damage, read-out: Pre-emergence herbicidal activity (percentage phytotoxicity) ALOMY PRE
# [11] = post-emergence, 360 h, POST-emergence, rate 250 g/ha, visual score 15 DAA (100%=total damage, 0%=no damage), read-out: Post-emergence herbicidal activity (percentage phytotoxicity) LOLPE POST
# [12] = pre-emergence, 480 h, PRE-emergence, rate 250 g/ha, visual score 20 DAA (100%=total damage, 0%=no damage), read-out: Pre-emergence herbicidal activity (percentage phytotoxicity) LOLPE PRE
# [13] = post-emergence, 360 h, POST-emergence, rate 250 g/ha, visual score 15 DAA (100%=total damage, 0%=no damage), read-out: Post-emergence herbicidal activity (percentage phytotoxicity) AVEFA POST
# [14] = pre-emergence, 480 h, PRE-emergence, rate 250 g/ha, visual score 20 DAA (100%=total damage, 0%=no damage), read-out: Pre-emergence herbicidal activity (percentage phytotoxicity) AVEFA PRE
# [15] = post-emergence, 360 h, POST-emergence, rate 250 g/ha, visual score 15 DAA (100%=total damage, 0%=no damage), read-out: Post-emergence herbicidal activity (percentage phytotoxicity) ECHCG POST
# [16] = pre-emergence, 480 h, PRE-emergence, rate 250 g/ha, visual score 20 DAA (100%=total damage, 0%=no damage), read-out: Pre-emergence herbicidal activity (percentage phytotoxicity) ECHCG PRE
# [17] = post-emergence, 360 h, POST-emergence, rate 250 g/ha, visual score 15 DAA (100%=total damage, 0%=no damage), read-out: Post-emergence herbicidal activity (percentage phytotoxicity) ALOMY POST
# [18] = pre-emergence, 480 h, PRE-emergence, rate 250 g/ha, visual score 20 DAA (100%=total damage, 0%=no damage), read-out: Pre-emergence herbicidal activity (percentage phytotoxicity) ALOMY PRE
# [19] = post-emergence, 360 h, 250 g/ha, post-emergence, 15 DAA, visual assessment (100%=total damage, 0%=no damage), read-out: Post-emergence herbicidal activity (percentage phytotoxicity) LOLPE POST
# [20] = pre-emergence, 480 h, 250 g/ha, pre-emergence, 20 DAA, visual assessment (100%=total damage, 0%=no damage), read-out: Pre-emergence herbicidal activity (percentage phytotoxicity) LOLPE PRE
# [21] = post-emergence, 360 h, 250 g/ha, post-emergence, 15 DAA, visual assessment (100%=total damage, 0%=no damage), read-out: Post-emergence herbicidal activity (percentage phytotoxicity) AVEFA POST
# [22] = pre-emergence, 480 h, 250 g/ha, pre-emergence, 20 DAA, visual assessment (100%=total damage, 0%=no damage), read-out: Pre-emergence herbicidal activity (percentage phytotoxicity) AVEFA PRE
# [23] = post-emergence, 360 h, 250 g/ha, post-emergence, 15 DAA, visual assessment (100%=total damage, 0%=no damage), read-out: Post-emergence herbicidal activity (percentage phytotoxicity) ECHCG POST
# [24] = pre-emergence, 480 h, 250 g/ha, pre-emergence, 20 DAA, visual assessment (100%=total damage, 0%=no damage), read-out: Pre-emergence herbicidal activity (percentage phytotoxicity) ECHCG PRE
# [25] = post-emergence, 360 h, 250 g/ha, post-emergence, 15 DAA, visual assessment (100%=total damage, 0%=no damage), read-out: Post-emergence herbicidal activity (percentage phytotoxicity) ALOMY POST
# [26] = pre-emergence, 480 h, 250 g/ha, pre-emergence, 20 DAA, visual assessment (100%=total damage, 0%=no damage), read-out: Pre-emergence herbicidal activity (percentage phytotoxicity) ALOMY PRE
Structure (SMILES),pest or weed control at 250 g/ha (Lolium perenne (LOLPE); [3]),pest or weed control at 250 g/ha (Lolium perenne (LOLPE); [4]),pest or weed control at 250 g/ha (Avena fatua (AVEFA); [5]),pest or weed control at 250 g/ha (Avena fatua (AVEFA); [6]),"pest or weed control at 250 g/ha [1, 7]","pest or weed control at 250 g/ha [1, 8]","pest or weed control at 250 g/ha [2, 9]","pest or weed control at 250 g/ha [2, 10]",pest or weed control at 250 g/ha (Lolium perenne (LOLPE); [19]),pest or weed control at 250 g/ha (Lolium perenne (LOLPE); [20]),pest or weed control at 250 g/ha (Avena fatua (AVEFA); [21]),pest or weed control at 250 g/ha (Avena fatua (AVEFA); [22]),"pest or weed control at 250 g/ha [1, 23]","pest or weed control at 250 g/ha [1, 24]","pest or weed control at 250 g/ha [2, 25]","pest or weed control at 250 g/ha [2, 26]",other results
Cc1cc(-c2ccc(Cl)cn2)cc(C)c1C1C(=O)CC(CC(=O)NCC2CC2)C1=O (stereo not drawn) [Compound B362],90%,100%,100%,100%,100%,100%,90%,100%,,,,,,,,,
CCSC(=O)OC1=C(c2c(C)cc(-c3ncc(Cl)cn3)cc2C)C(=O)C(CC(=O)NC(C)(C)C)C1 (stereo not drawn) [Compound P5],,,,,,,,,,,,,,,,,"pest or weed control at 250 g/ha (Lolium perenne (LOLPE); post-emergence, 360 h, post-emergence, 250 g/ha, 15 DAA, visual score (100%=total damage; 0%=no damage), read-out: LOLPE POST herbicidal activity (percentage phytotoxicity)): 100%; pest or weed control at 250 g/ha (Lolium perenne (LOLPE); pre-emergence, 480 h, pre-emergence, 250 g/ha, 20 DAA, visual score (100%=total damage; 0%=no damage), read-out: LOLPE PRE herbicidal activity (percentage phytotoxicity)): 100%; pest or weed control at 250 g/ha (Avena fatua (AVEFA); post-emergence, 360 h, post-emergence, 250 g/ha, 15 DAA, visual score (100%=total damage; 0%=no damage), read-out: AVEFA POST herbicidal activity (percentage phytotoxicity)): 100%; pest or weed control at 250 g/ha (Avena fatua (AVEFA); pre-emergence, 480 h, pre-emergence, 250 g/ha, 20 DAA, visual score (100%=total damage; 0%=no damage), read-out: AVEFA PRE herbicidal activity (percentage phytotoxicity)): 90%; pest or weed control at 250 g/ha ([1]; post-emergence, 360 h, post-emergence, 250 g/ha, 15 DAA, visual score (100%=total damage; 0%=no damage), read-out: ECHCG POST herbicidal activity (percentage phytotoxicity)): 100%; pest or weed control at 250 g/ha ([1]; pre-emergence, 480 h, pre-emergence, 250 g/ha, 20 DAA, visual score (100%=total damage; 0%=no damage), read-out: ECHCG PRE herbicidal activity (percentage phytotoxicity)): 100%; pest or weed control at 250 g/ha ([2]; post-emergence, 360 h, post-emergence, 250 g/ha, 15 DAA, visual score (100%=total damage; 0%=no damage), read-out: ALOMY POST herbicidal activity (percentage phytotoxicity)): 100%; pest or weed control at 250 g/ha ([2]; pre-emergence, 480 h, pre-emergence, 250 g/ha, 20 DAA, visual score (100%=total damage; 0%=no damage), read-out: ALOMY PRE herbicidal activity (percentage phytotoxicity)): 100%"
C#CCNC(=O)CC1CC(=O)C(c2c(C)cc(-n3cc(Cl)cn3)cc2C)C1=O (stereo not drawn) [Compound B317],,,,,,,,,,,,,,,,,"pest or weed control at 250 g/ha (Lolium perenne (LOLPE); [11]): 90%; pest or weed control at 250 g/ha (Lolium perenne (LOLPE); [12]): 90%; pest or weed control at 250 g/ha (Avena fatua (AVEFA); [13]): 100%; pest or weed control at 250 g/ha (Avena fatua (AVEFA); [14]): 90%; pest or weed control at 250 g/ha [1, 15]: 100%; pest or weed control at 250 g/ha [1, 16]: 100%; pest or weed control at 250 g/ha [2, 17]: 100%; pest or weed control at 250 g/ha [2, 18]: 90%"
COCC(C)NC(=O)CC1CC(=O)C(c2c(C)cc(-c3ncc(F)cc3F)cc2C)C1=O (stereo not drawn) [Compound B335],100%,100%,100%,100%,100%,90%,100%,100%,,,,,,,,,
Cc1cc(C)c(C2C(=O)CC(CC(=O)Nc3ccccn3)C2=O)c(C)c1 (stereo not drawn) [Compound B64],,,,,,,,,80%,70%,70%,50%,70%,80%,80%,80%,
Cc1cc(-c2ncc(Cl)cn2)cc(C)c1C1C(=O)CC(CC(=O)N(C)C(C)(C)C)C1=O (stereo not drawn) [Compound B348],100%,90%,100%,80%,100%,100%,100%,80%,,,,,,,,,
Cc1cc(C)c(C2C(=O)CC(CC(=O)NCC(CF)CF)C2=O)c(C)c1 (stereo not drawn) [Compound B76],,,,,,,,,80%,90%,80%,70%,80%,90%,80%,90%,
CCc1cc(-n2cc(Cl)cn2)cc(C)c1C1C(=O)CC(CC(=O)NCc2ccc(OC)cc2)C1=O (stereo not drawn) [Compound B233],,,,,,,,,,,,,,,,,"pest or weed control at 250 g/ha (Lolium perenne (LOLPE); [11]): 70%; pest or weed control at 250 g/ha (Lolium perenne (LOLPE); [12]): 70%; pest or weed control at 250 g/ha (Avena fatua (AVEFA); [13]): 70%; pest or weed control at 250 g/ha (Avena fatua (AVEFA); [14]): 60%; pest or weed control at 250 g/ha [1, 15]: 100%; pest or weed control at 250 g/ha [1, 16]: 70%; pest or weed control at 250 g/ha [2, 17]: 60%; pest or weed control at 250 g/ha [2, 18]: 70%"
Cc1cc(-c2ncc(F)cn2)cc(C)c1C1C(=O)CC(CC(=O)NCC(C)C)C1=O (stereo not drawn) [Compound B112],,,,,,,,,100%,100%,100%,100%,100%,100%,100%,100%,
